Series [1] concerns the target T1, human D2S receptor (Homo sapiens (Human), UniProt P14416). The series can be described thus: Cell-based functional cAMP assay, antagonist signaling (reversal of quinpirole inhibition).
Series [2] is described as follows: Rat PK study of the compound of Example 1. Type of series: in vivo. On the procedure: (§1) Surgically modified rats are housed one per cage, and supplied with water and a commercial rodent diet ad libitum prior to study initiation. Food is withheld from the animals for a minimum of twelve hours before and during the study, until four hours post-dose, at which time food is returned. Animals are dosed IV, SC and PO, and blood samples are collected following the study design in the following table. Blood samples (˜0.25 mL) are collected via JVC or tail vein, placed into chilled blood collection tubes containing sodium heparin as the anticoagulant, and kept on ice until centrifugation. Blood samples are then centrifuged at a temperature of 2 to 8° C., at 3,000 g, for 5 minutes. Drug levels in the plasma samples are quantified via HPLC with MS/MS detection. Pharmacokinetic parameters based on the group geomean concentration versus time data, are calculated using a noncompartmental pharmaceutical data analysis software PK Solutions 2.0 (Summit Research Services, Montrose, Colo.).

The target in series [3] is T1, human D2S receptor. The series can be described thus: Cell-based functional cAMP assay, agonist signaling (inhibition of forskolin-stimulated cAMP).
A short description of series [4]: Rat PK studies of the compound of Example 3. The settings on record: Study One, IV 1 mg/kg.
The target of series [5] is Mu opiate receptor (Homo sapiens (Human), UniProt P35372). Nature of the series: Receptor binding, Mu opiate receptor.
The target in series [6] is SERT (Homo sapiens (Human), UniProt P31645). The series can be described thus: Binding, SERT.
A short description of series [7]: Rat PK study of the compound of Example 2. Format: in vivo. As to the method:
as §1
This study is performed according to the same procedure as outlined in Example 5a, with the blood samples collected as shown in the table below.

Series [8] relates to patients with acute exacerbated schizophrenia. Nature of the series: Clinical studies of patients with acute exacerbated schizophrenia. Format: in vivo. The settings on record: once daily 60 mg P.O., up to 28 days. The text has this: Social avoidance can be a critical and debilitating symptom in patients suffering from anxiety disorders, especially social anxiety disorder, as well as in patients suffering from traumatic anxiety disorders. Social avoidance is often one of the key determinants of whether a person with a severe anxiety disorder is capable of maintaining familial relationships or employment relationships. […] Negative symptoms of schizophrenia can be divided into two categories: emotional experience (e.g., emotional withdrawal, passive social withdrawal, active social avoidance) and emotional expression (e.g., blunted effect, poor rapport, lack of spontaneity, and motor retardation). […] These are the symptoms that are most highly correlated with interpersonal functioning.

Series [9] has as its system rat mPFC slices.
The test system of series [10] is patients with major depressive episodes. The settings on record: 40-minute infusion, total dose 0.5 mg/kg, after 24 hours; cited from earlier work.

T1 sequence (P14416 other isoform, or with tags, fused parts or gaps): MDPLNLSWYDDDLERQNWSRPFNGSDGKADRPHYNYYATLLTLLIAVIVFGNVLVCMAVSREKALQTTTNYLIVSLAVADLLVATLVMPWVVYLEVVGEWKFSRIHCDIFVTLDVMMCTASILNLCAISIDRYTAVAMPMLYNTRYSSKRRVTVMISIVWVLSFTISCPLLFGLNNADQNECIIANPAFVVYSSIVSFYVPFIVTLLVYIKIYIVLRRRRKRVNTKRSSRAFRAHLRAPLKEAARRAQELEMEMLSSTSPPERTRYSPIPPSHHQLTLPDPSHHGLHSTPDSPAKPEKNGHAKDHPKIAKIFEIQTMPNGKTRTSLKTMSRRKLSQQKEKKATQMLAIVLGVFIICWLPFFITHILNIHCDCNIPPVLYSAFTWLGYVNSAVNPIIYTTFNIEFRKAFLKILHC
Sequence of Mu opiate receptor (P35372 whole entry): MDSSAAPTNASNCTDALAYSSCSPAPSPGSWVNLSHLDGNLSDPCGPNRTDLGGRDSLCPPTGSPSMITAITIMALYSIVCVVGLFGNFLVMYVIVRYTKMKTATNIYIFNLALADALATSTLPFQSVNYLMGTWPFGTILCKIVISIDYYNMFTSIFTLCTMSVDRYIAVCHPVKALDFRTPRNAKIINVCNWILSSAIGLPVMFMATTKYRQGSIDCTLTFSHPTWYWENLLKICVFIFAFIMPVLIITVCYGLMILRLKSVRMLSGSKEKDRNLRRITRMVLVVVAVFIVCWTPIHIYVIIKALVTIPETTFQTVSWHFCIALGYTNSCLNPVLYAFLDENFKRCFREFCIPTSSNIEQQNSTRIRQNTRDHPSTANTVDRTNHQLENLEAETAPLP
Sequence of SERT (P31645 whole entry): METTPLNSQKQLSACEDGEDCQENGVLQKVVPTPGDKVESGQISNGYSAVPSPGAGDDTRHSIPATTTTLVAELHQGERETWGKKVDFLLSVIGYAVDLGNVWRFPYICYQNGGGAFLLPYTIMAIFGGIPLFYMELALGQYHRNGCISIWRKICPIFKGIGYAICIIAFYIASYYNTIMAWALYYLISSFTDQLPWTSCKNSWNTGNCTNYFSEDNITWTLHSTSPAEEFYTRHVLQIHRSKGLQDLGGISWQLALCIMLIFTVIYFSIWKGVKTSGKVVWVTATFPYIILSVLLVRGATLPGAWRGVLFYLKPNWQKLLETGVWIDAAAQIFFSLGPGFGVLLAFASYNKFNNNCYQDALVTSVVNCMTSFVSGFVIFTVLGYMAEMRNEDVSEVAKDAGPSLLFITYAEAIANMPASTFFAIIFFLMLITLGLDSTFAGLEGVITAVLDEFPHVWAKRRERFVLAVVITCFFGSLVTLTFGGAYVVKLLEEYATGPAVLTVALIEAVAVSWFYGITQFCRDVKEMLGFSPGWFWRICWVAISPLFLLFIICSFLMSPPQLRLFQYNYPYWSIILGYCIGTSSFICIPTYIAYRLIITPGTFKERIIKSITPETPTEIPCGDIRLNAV

One may read the AUC as the area under the concentration-time curve, a measure of exposure. Low readings indicate less exposure, high ones more exposure. In general, Cmax refers to the highest concentration seen after dosing. The term bioavailability denotes dose-corrected exposure relative to a reference, in per cent. Consider `CN1C(=O)CN2c3c(cccc31)[C@@H]1CN(CCCOc3ccc(F)cc3)CC[C@@H]12` [Compound 1, (6bR,10aS)-8-(3-(4-fluorophenoxy)propyl)-3-methyl-6b,7,8,9,10,10a-hexahydro-1H-pyrido[3′,4′:4,5]pyrrolo[1,2,3-de]quinoxalin-2(3H)-one], for which, in [1], the “antagonist activity at the D2S receptor (in words)” value is “antagonist activity”. Besides, in [2] (IV 1 mg/kg), the t-1/2 came to 1.0 h. In series [2] (plasma, IV 1 mg/kg), this compound registered an AUC of 270 ng·h/mL, a Cmax of 505 ng/mL, a bioavailability of 100% and a concentration at 30 min of 116 ng/mL. For the same compound, in series [2] (plasma, IV 1 mg/kg), the concentration at 1 h was 70 ng/mL and the concentration at 6 h is 1.6 ng/mL. In series [2] (plasma, PO 1 mg/kg), the exposure (AUC) is 22.6 ng·h/mL, the peak level (Cmax) was 5 ng/mL, the bioavailability was found to be 10% and the concentration at 30 min was 4.2 ng/mL. In addition, in [2] (plasma, PO 1 mg/kg), the concentration at 1 h came out at 2.9 ng/mL and the concentration at 6 h stood at 1.4 ng/mL. In addition, in [2] (plasma, SC 1 mg/kg), the AUC stood at 247 ng·h/mL, the Cmax came to 34 ng/mL, the bioavailability was 90% and the concentration at 30 min turned out to be 23.6 ng/mL. Further, in [2] (plasma, SC 1 mg/kg), the concentration at 1 h stood at 28.1 ng/mL, the concentration at 6 h was 12.8 ng/mL and the concentration at 24 h amounted to 1.3 ng/mL. In addition, in series [3], the “agonist activity at the D2S receptor (in words)” value is reported as “no detectable agonist activity”. Moreover, the “Agonist EC50” value in series [3] (CHO-K1 hD2S, 10 μM forskolin) is “no activity”.

Consider `O=C1CN2c3c(cccc3[C@@H]3CN(CCCOc4ccc(F)cc4)CC[C@@H]32)N1` [Formula A, (6bR,10aS)-8-(3-(4-fluorophenoxy)propyl)-6b,7,8,9,10,10a-hexahydro-1H-pyrido[3′,4′:4,5]pyrrolo[1,2,3-de]quinoxalin-2(3H)-one], for which the t-1/2 in series [4] is 1.1 h. Also, the “mu-opiate activity (in words)” value in series [5] was “very strong mu-opiate antagonist”. The “SERT activity (in words)” value in [6] is “relatively weak SERT antagonist”.

Broadly, the Ki is the dissociation constant of the complex between target and ligand, obtained from inhibition or displacement. In turn, `CN1CCN2c3c(cccc31)[C@@H]1CN(CCCC(=O)c3ccc(F)cc3)CC[C@@H]12` [Formula B, 4-((6bR,10aS)-3-methyl-2,3,6b,9,10,10a-hexahydro-1H-pyrido-[3′,4′:4,5]-pyrrolo[1,2,3-de]quinoxalin-8-(7H)-yl)-1-(4-fluorophenyl)-1-butanone] displayed a t-1/2 in [7] (IV 1 mg/kg) of 1.4 h. In [7] (plasma, IV 1 mg/kg), this compound returned an exposure (AUC) of 231 ng·h/mL, a bioavailability of 100%, a concentration at 30 min of 92.5 ng/mL and a concentration at 6 h of 3.1 ng/mL. This compound also came in with a concentration at 12 h in [7] (plasma, IV 1 mg/kg) of 0.5 ng/mL. In [7] (plasma, PO 10 mg/kg), this compound yielded an AUC of 56 ng·h/mL, a Cmax of 13.8 ng/mL, a bioavailability of 2% and a concentration at 30 min of 12.2 ng/mL. In series [7] (plasma, PO 10 mg/kg), this compound displayed a concentration at 1 h of 13.8 ng/mL, a concentration at 6 h of 1.5 ng/mL and a concentration at 12 h of 0.3 ng/mL. In series [7] (plasma, SC 45 mg/kg), the AUC was found to be 7630 ng·h/mL, the Cmax was determined as 747 ng/mL, the bioavailability worked out at 73% and the concentration at 30 min is 705 ng/mL. In [7] (plasma, SC 45 mg/kg), this compound had a concentration at 1 h of 700 ng/mL, a concentration at 6 h of 498 ng/mL, a concentration at 12 h of 168 ng/mL and a concentration at 24 h of 12.3 ng/mL. Further, the “mu-opiate activity (in words)” value in series [5] is reported as “no mu-opiate activity”. Moreover, in series [5] (Mu opiate receptor, read-out: Ki (nM) or maximum inhibition), the Ki is over 10000 nM. Further, the “SERT activity (in words)” value in [6] was “very strong SERT antagonist”. For the same compound, the “symptoms of emotional experience compared to placebo” value in series [8] was “significant and unexpected improvement in symptoms of emotional experience”. The “glutamatergic neurotransmission (NMDA and AMPA receptor conductance)” value in series [9] is on record as “enhances glutamatergic neurotransmission”.

As to `CNC1(c2ccccc2Cl)CCCCC1=O` (centres unmarked) [ketamine], the “ratings on the Hamilton Depression Rating Scale (HDRS) compared to placebo” value in series [10] is reported as “significantly improved ratings”.

Source of the values: patent publication US12195462B2, “Organic compound” (INTRA-CELLULAR THERAPIES, INC., priority 2018, dated 2025).
